This note sets out measurements from patent US20180353524A1, “CANCER TREATMENT USING 2-DEOXY-2-FLUORO-L-FUCOSE IN COMBINATION WITH A CHECKPOINT INHIBITOR” (SEATTLE GENETICS, INC., priority 2015, published 2018).

In this experiment the test system is CMV reactive human PMBCs. Briefly: In vitro 2FF and anti-PD1 antibody combination in human PBMCs (IFNγ, IL12p70). The note with it: 1 μg/mL anti-PD1 (Pembrolizumab) added to co-culture of 2FF matured T-cells, DCs and CMV antigen.

Protocol: CMV reactive human PMBCs from a CMV positive donor (Astarte™ Biologics) were thawed, plated into a 6-well plate and cultured overnight in DC media (30% DMEM 70% X-vivo+2 mM glutamax+10% ATB serum+1% PS). The following day the supernatant was collected to isolate T-cells and the adhering cells were washed in media and then replenished with 2 mL media supplemented with IL4 (100 ng/μL) and GMCSF (200 ng/μL) per well to differentiate and proliferate the adhering monocytes into DCs. The plate was incubated for 4-5 days and then cells were moved into a T25 flask. Each time the cells were passaged (every 2-3 days) new cytokines were given. The T-cells in the supernatant were isolated using StemSep human T-cell enrichment kit (Stemcell technologies). The T-cells were then resuspended in T-cell media (RPMI+10% Fetal calf serum, 1% PS) and spilt into two T25 flasks (with or without 100-200 μM 2FF). CD3CD28 antibody coated beads (Miltenyi Biotec) (20 μL/flask) were added to activate the T-cells. After 24 h IL2 was added (100 ng/μL). Each time the cells were passaged new IL2 and 2FF were added. […]
IFNγ and IL12p70 in the supernatants from 5 day co-cultures were measured using a Lumenix assay and the concentration of each cytokine was calculated using an internal standard curve.

As to “Pembrolizumab [anti-PD1, reference compound]”, the “antigen specific response (IFNγ, IL12p70) of 2FF matured T-cells on addition of anti-PD1” value is listed as “further enhances the antigen specific response”.
